This passage reports IC50 and GI50 results from US20250084095A1, “Aminopyrimidine Derivatives as Cyclin-Dependent Kinase Inhibitors” (Accutar Biotechnology Inc., priority 2023, published 2025).

Assay [1] deals with Phospho-Rb (Ser807/811) in MCF7 cells. The assay can be described thus: Phospho-Rb expression inhibition in MCF7 cells quantified by in cell Western. The format is cell-based, human. The note with it: Homo sapiens, MCF7, 24 h, 24 hours, in cell Western, read-out: MCF7 pRb IC50. The essentials:
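MCF7 cells were seeded at 20,000/well, grown overnight, then treated 24 h at 37 °C with compound dilutions (0.1% DMSO from 1000× stocks). Fixed cells were co-stained for phospho-Rb Ser807/811 and total Rb. Near-infrared dual-channel in-cell Western imaging was the read-out.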

The subject of another assay is 22RV1 cells. The assay can be described thus: Cell growth inhibition of 22RV1 cells (CellTiter-Glo). The format is cell-based. Particulars: Homo sapiens, 22Rv1, 120 h, 5 days, CellTiter-Glo, read-out: 22RV1 Cell Growh GI50. The essentials: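 22RV1 cells were plated in RPMI1640 with FBS (20% in one version, 10% in the other) and dosed next day at various concentrations from DMSO stocks. After 5 days at 37 °C, viability was measured by CellTiter-Glo luminescence.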
For orientation: ATP-based viability assays read luminescence as a measure of living cells.

As usually defined, the IC50 is the concentration that gives 50% inhibition. As usually defined, the GI50 is the concentration giving 50% growth inhibition. Take `CC(C)c1cn(C)c(=O)c2ccc(-c3nc(N[C@@H]4C[C@H]5CO[C@H](O5)[C@H]4O)ncc3Cl)cc12` [Compound 236, 6-(5-chloro-2-(((1S,3R,4S,5R)-4-hydroxy-6,8-dioxabicyclo[3.2.1]octan-3-yl)amino)pyrimidin-4-yl)-4-isopropyl-2-methylisoquinolin-1(2H)-one]: the IC50 in assay [1] was 150 to 1000 nM. Also, in the assay with 22RV1 cells, the concentration for 50% growth inhibition (GI50) lay in the range of 450 to 3000 nM.
On the same counts, the results for `CC(C)c1cc2cc(-c3nc(N[C@@H]4C[C@H]5CO[C@H](O5)[C@H]4O)ncc3Cl)ccc2c(=O)n1C` [Compound 237, 6-(5-chloro-2-(((1S,3R,4S,5R)-4-hydroxy-6,8-dioxabicyclo[3.2.1]octan-3-yl)amino)pyrimidin-4-yl)-3-isopropyl-2-methylisoquinolin-1(2H)-one] are 40 to 150 nM and 450 to 3000 nM.
In the case of `CC(C)n1c(C2CC(F)C2)nc2c(F)cc(-c3nc(N[C@@H]4C[C@H]5CO[C@H](O5)[C@H]4O)ncc3Cl)cc21` (stereo partly drawn) [Compound 242, (1S,3R,4S,5R)-3-((5-chloro-4-(4-fluoro-2-((1s,3S)-3-fluorocyclobutyl)-1-isopropyl-1H-benzo[d]imidazol-6-yl)pyrimidin-2-yl)amino)-6,8-dioxabicyclo[3.2.1]octan-4-ol], the IC50 in assay [1] was ≤ 40 nM. For the same molecule, the GI50 in the assay with 22RV1 cells lay within 120 to 450 nM.
On the same counts, the results for `CC(C)n1c(C2CC(O)C2)nc2c(F)cc(-c3nc(N[C@@H]4C[C@H]5CO[C@H](O5)[C@H]4O)ncc3Cl)cc21` (stereo partly drawn) [Compound 244, (1S,3R,4S,5R)-3-((5-chloro-4-(4-fluoro-2-((1s,3S)-3-hydroxycyclobutyl)-1-isopropyl-1H-benzo[d]imidazol-6-yl)pyrimidin-2-yl)amino)-6,8-dioxabicyclo[3.2.1]octan-4-ol] are 40 to 150 nM and 120 to 450 nM.
In the same order, the values of `CC(C)c1c(C(C)(C)O)cnc2c(F)cc(-c3nc(N[C@@H]4C[C@H]5CO[C@H](O5)[C@H]4O)ncc3Cl)cc12` [Compound 250, (1S,3R,4S,5R)-3-((5-chloro-4-(8-fluoro-3-(2-hydroxypropan-2-yl)-4-isopropylquinolin-6-yl)pyrimidin-2-yl)amino)-6,8-dioxabicyclo[3.2.1]octan-4-ol] are ≤ 40 nM and ≤ 120 nM.
`CC(C)(O)c1ccnc2c(F)cc(-c3nc(N[C@@H]4C[C@H]5CO[C@H](O5)[C@H]4O)ncc3Cl)cc12` [Compound 251, (1S,3R,4S,5R)-3-((5-chloro-4-(8-fluoro-4-(2-hydroxypropan-2-yl)quinolin-6-yl)pyrimidin-2-yl)amino)-6,8-dioxabicyclo[3.2.1]octan-4-ol]: in assay [1], the IC50 lay within 40 to 150 nM. Moreover, in the assay with 22RV1 cells, the concentration for 50% growth inhibition (GI50) is ≤ 120 nM.
In the same order, the values of `CC(C)(O)c1cnc2c(F)cc(-c3nc(N[C@@H]4C[C@H]5CO[C@H](O5)[C@H]4O)ncc3Cl)cc2c1` [Compound 253, (1S,3R,4S,5R)-3-((5-chloro-4-(8-fluoro-3-(2-hydroxypropan-2-yl)quinolin-6-yl)pyrimidin-2-yl)amino)-6,8-dioxabicyclo[3.2.1]octan-4-ol] are 150 to 1000 nM and 120 to 450 nM.
In the case of `CC(C)(O)c1cnc2c(F)cc(-c3nc(N[C@@H]4C[C@H]5CO[C@H](O5)[C@H]4O)ncc3F)cc2c1` [Compound 254, (1S,3R,4S,5R)-3-((5-fluoro-4-(8-fluoro-3-(2-hydroxypropan-2-yl)quinolin-6-yl)pyrimidin-2-yl)amino)-6,8-dioxabicyclo[3.2.1]octan-4-ol], the IC50 in assay [1] lay in the range of 150 to 1000 nM. Further, in the assay on 22RV1 cells, the concentration for 50% growth inhibition (GI50) lay in the range of 120 to 450 nM.
On the same counts, the results for `CC(C)(O)c1cc2cc(-c3nc(N[C@@H]4C[C@H]5CO[C@H](O5)[C@H]4O)ncc3Cl)cc(F)c2nn1` [Compound 258, (1S,3R,4S,5R)-3-((5-chloro-4-(8-fluoro-3-(2-hydroxypropan-2-yl)cinnolin-6-yl)pyrimidin-2-yl)amino)-6,8-dioxabicyclo[3.2.1]octan-4-ol] are > 1000 nM and > 3000 nM.
In the same order, the values of `Cc1c(-c2nc(N[C@@H]3C[C@H]4CO[C@H](O4)[C@H]3O)ncc2Cl)sc2cc(C(C)(C)O)cnc12` [Compound 260, (1S,3R,4S,5R)-3-((5-chloro-4-(6-(2-hydroxypropan-2-yl)-3-methylthieno[3,2-b]pyridin-2-yl)pyrimidin-2-yl)amino)-6,8-dioxabicyclo[3.2.1]octan-4-ol] are 40 to 150 nM and 120 to 450 nM.
In the same order, the values of `O[C@@H]1[C@@H]2OC[C@H](C[C@H]1Nc1ncc(Cl)c(-c3cc(F)c4ncc(CN5CCOCC5)cc4c3)n1)O2` [Compound 261, (1S,3R,4S,5R)-3-((5-chloro-4-(8-fluoro-3-(morpholinomethyl)quinolin-6-yl)pyrimidin-2-yl)amino)-6,8-dioxabicyclo[3.2.1]octan-4-ol] are 150 to 1000 nM and 450 to 3000 nM.
As for `C[C@H]1COC[C@H](C)N1Cc1cnc2c(F)cc(-c3nc(N[C@@H]4C[C@H]5CO[C@H](O5)[C@H]4O)ncc3Cl)cc2c1` [Compound 262, (1S,3R,4S,5R)-3-((5-chloro-4-(3-(((3S,5S)-3,5-dimethylmorpholino)methyl)-8-fluoroquinolin-6-yl)pyrimidin-2-yl)amino)-6,8-dioxabicyclo[3.2.1]octan-4-ol], the IC50 in assay [1] lay within 150 to 1000 nM. The 50% growth inhibitory concentration (GI50) in the assay with 22RV1 cells was 450 to 3000 nM.
On the same counts, the results for `CC(C)[C@@H]1COC(=O)N1c1nc2c(F)cc(-c3nc(N[C@@H]4C[C@H]5CO[C@H](O5)[C@H]4O)ncc3Cl)cc2n1C(C)C` [Compound 263, (R)-3-(6-(5-chloro-2-(((1S,3R,4S,5R)-4-hydroxy-6,8-dioxabicyclo[3.2.1]octan-3-yl)amino)pyrimidin-4-yl)-4-fluoro-1-isopropyl-1H-benzo[d]imidazol-2-yl)-4-isopropyloxazolidin-2-one] are 150 to 1000 nM and > 3000 nM.
In the same order, the values of `CC(C)(O)c1cnc2c(F)cc(-c3nc(N[C@@H]4C[C@H]5CO[C@H](O5)[C@H]4O)ncc3Cl)cc2n1` [Compound 264, (1S,3R,4S,5R)-3-((5-chloro-4-(8-fluoro-3-(2-hydroxypropan-2-yl)quinoxalin-6-yl)pyrimidin-2-yl)amino)-6,8-dioxabicyclo[3.2.1]octan-4-ol] are 150 to 1000 nM and 450 to 3000 nM.
In the same order, the values of `Cc1c(-c2nc(N[C@@H]3C[C@H]4CO[C@H](O4)[C@H]3O)ncc2F)sc2c(C(C)C)cnnc12` [Compound 266, (1S,3R,4S,5R)-3-((5-fluoro-4-(4-isopropyl-7-methylthieno[3,2-c]pyridazin-6-yl)pyrimidin-2-yl)amino)-6,8-dioxabicyclo[3.2.1]octan-4-ol] are ≤ 40 nM and ≤ 120 nM.
In the case of `CC(C)n1c([C@H]2CCOC2)nc2c(F)cc(-c3nc(N[C@@H]4C[C@H]5CO[C@H](O5)[C@H]4O)ncc3Cl)cc21` [Compound 267, (1S,3R,4S,5R)-3-((5-chloro-4-(4-fluoro-1-isopropyl-2-((R)-tetrahydrofuran-3-yl)-1H-benzo[d]imidazol-6-yl)pyrimidin-2-yl)amino)-6,8-dioxabicyclo[3.2.1]octan-4-ol], the IC50 in assay [1] is 40 to 150 nM. Moreover, the GI50 in the assay with 22RV1 cells is 120 to 450 nM.
